Test results as given in patent publication US11447486B2, “2-amino-benzimidazole derivatives and their use as 5-lipoxygenase and/or prostaglandin E synthase inhibitors” (INSTITUT PASTEUR KOREA, priority 2014, dated 2022).
Like-named read-outs stand apart in the source and are kept apart here.

Key:
[1] = tested on: Rat basophilic leukemia (RBL) cells; test: LTB4 secretion assay in RBL (rat basophilic leukemia cells); format: cell-based
How it was run: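 LTB4 released into supernatant was measured by EIA after 10 min at 37 °C with arachidonic acid (2.5 uM final) and calcium ionophore A23187 (5 uM final). Before stimulation, cells plated 2×10^4/well overnight received compound doses (5 nM to 100 uM) for 15 min in 0.5% FBS medium.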

[2] = tested on: Rat whole blood (RWB); test: LTB4 secretion assay in RWB (rat whole blood); format: cell-based
How it was run: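 LTB4 release was measured by EIA in supernatants of pooled, sodium heparin rat blood (male Sprague Dawley, 6-9 weeks) diluted 1:1 with RPMI. Compounds (2.5 nM to 50 uM) were added 15 min before A23187 (10 uM final), with 10 min stimulation at 37 °C before ice-cold PBS quench.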

[3] = target: T1, human 5-LOX (Homo sapiens, UniProt P09917); test: 5-LOX enzyme activity, fluorescence method (5-HPETE, H2DCFDA); format: biochemical; conditions: read-out: 5-LO (IC50)
T1 construct: purchased Cayman 60402; host or cells: insect cells (lysate)
T1 sequence (P09917 1-674): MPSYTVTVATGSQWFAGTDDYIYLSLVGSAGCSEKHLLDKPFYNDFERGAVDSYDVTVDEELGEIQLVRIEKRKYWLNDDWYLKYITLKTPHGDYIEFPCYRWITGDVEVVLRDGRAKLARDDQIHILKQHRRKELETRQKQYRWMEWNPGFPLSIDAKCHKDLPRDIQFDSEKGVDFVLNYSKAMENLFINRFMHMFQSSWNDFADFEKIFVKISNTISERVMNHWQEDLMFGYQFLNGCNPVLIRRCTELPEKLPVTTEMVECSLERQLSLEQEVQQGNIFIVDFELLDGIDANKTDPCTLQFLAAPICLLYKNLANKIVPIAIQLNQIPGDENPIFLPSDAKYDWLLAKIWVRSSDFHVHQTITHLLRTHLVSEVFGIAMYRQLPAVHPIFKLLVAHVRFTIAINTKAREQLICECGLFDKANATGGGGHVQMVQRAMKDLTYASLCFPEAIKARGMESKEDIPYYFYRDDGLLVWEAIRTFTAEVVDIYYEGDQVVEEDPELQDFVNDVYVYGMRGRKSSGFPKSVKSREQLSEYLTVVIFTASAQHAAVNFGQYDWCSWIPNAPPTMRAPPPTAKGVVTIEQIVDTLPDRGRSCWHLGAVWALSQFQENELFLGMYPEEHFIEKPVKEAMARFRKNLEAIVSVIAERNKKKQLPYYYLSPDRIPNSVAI
How it was run: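 Fluorescence-based read-out, run entirely at room temperature. Enzyme mixture was exposed to a dose range of compound from 0.5 nM to 10 uM for 5 min before ATP and arachidonic acid were added to final levels of 100 uM and 3 uM.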

SMILES | EC50 ([1]; Rattus norvegicus, RBL) [µM] | EC50 ([2]; Rattus norvegicus) [µM] | IC50 [3] [µM] | EC50 [1] [µM] | EC50 [2] [µM]
Cn1ccc(Nc2ccc3nc(NCc4ccc(Oc5ncc(Cl)cn5)cc4)n(C)c3c2F)n1 [Compound 487] | < 10 | < 10 | < 1 |  | 
Cn1c(NCc2cc(Cl)c(Oc3ncc(Cl)cn3)cc2Cl)nc2ccc(NC3COC3)cc21 [Compound 433] | 10 to 20 | < 10 | < 1 |  | 
CN(C)c1nc2cc(NCc3ccc(Oc4ccc(OC(F)(F)F)cc4)cc3)ccc2[nH]1 [Compound 126] | < 10 | > 20 | < 1 |  | 
CCC(Nc1nc2ccc(Nc3cc(C)[nH]n3)cc2n1C)c1ccc(Oc2ncc(Cl)cn2)cc1F (stereo not drawn) [Compound 537] | < 10 | < 10 | < 1 |  | 
Cn1c(NCc2ccc(Oc3cc(Cl)ncn3)cc2)nc2ccc(NC3COC3)cc21 [Compound 394] | 10 to 20 | > 20 | < 1 |  | 
Cn1c(NCc2ccc(Oc3ccc(Cl)cn3)cc2)nc2ccc(NC(C)(C)C(N)=O)cc21 [Compound 306] | < 10 | < 10 | < 1 |  | 
Nc1nc2cc(NCCOc3ccc(OC(F)(F)F)cc3)ccc2[nH]1 [Compound 75] | 10 to 20 | > 20 | < 1 |  | 
Cn1c(NCc2ccc(Oc3ccc(Cl)cn3)c(F)c2)nc2ccc(NC3COC3)cc21 [Compound 268] | < 10 | < 10 | < 1 |  | 
Cn1c(NCc2ccc(OCc3ccc(Cl)cn3)cc2)nc2ccc(NC3COC3)cc21 [Compound 315] | 10 to 20 | > 20 | < 1 |  | 
CCC(Nc1nc2ccc(Nc3cc(C4CC4)[nH]n3)cc2n1C)c1ccc(Oc2ncc(Cl)cn2)cc1 (stereo not drawn) [Compound 530] | < 10 | < 10 | < 1 |  | 
CCC(Nc1ccc2[nH]c(N(C)C)nc2c1)c1ccc(Oc2ccc(OC(F)(F)F)cc2)cc1 (stereo not drawn) [Compound 132] | < 10 | > 20 | < 1 |  | 
Cn1c(NCCOc2ccc(OC(F)(F)F)cc2Cl)nc2cc(N)ccc21 [Compound 57] | < 10 | > 20 | < 1 |  | 
Nc1ccc2nc(NCc3ccc(Oc4ncccn4)cc3)[nH]c2c1 [Compound 154] | > 20 | > 20 | < 1 |  | 
Nc1ccc2nc(NCc3ccc(C(=O)c4ccccc4)cc3)[nH]c2c1 [Compound 106] | < 10 | < 10 | < 1 |  | 
Cc1nnc(Nc2ccc3nc(NCc4ccc(Oc5ncc(Cl)cn5)cc4)n(C)c3c2)o1 [Compound 498] | > 20 | < 10 | > 10 |  | 
Nc1ccc2[nH]c(NCc3ccc4ccccc4c3)nc2c1 [Compound 81] | < 10 | < 10 | < 1 |  | 
Nc1ccc2nc(N)n(Cc3ccc(COc4ccc(Cl)cn4)cc3)c2c1 [Compound 249] | < 10 | < 10 | < 1 |  | 

SMILES | EC50 ([1]; Rattus norvegicus, RBL) [µM] | EC50 ([2]; Rattus norvegicus) [µM] | IC50 [3] [µM] | EC50 [1] [µM] | EC50 [2] [µM]
Cc1cc(Nc2ccc3nc(NCc4ccc(Oc5ncc(Cl)cn5)c(Cl)c4)n(C)c3c2)n[nH]1 [Compound 473] | < 10 | < 10 | < 1 |  | 
Cc1[nH]nc(Nc2ccc3nc(NCc4ccc(Oc5ccc(Cl)cn5)cc4)n(C)c3c2)c1Cl [Compound 518] | < 10 | < 10 | > 10 |  | 
Nc1ccc2[nH]c(NCc3ccc(Oc4ccc(F)cc4)cc3)nc2c1 [Compound 94] | < 10 | < 10 | < 1 |  | 
Cn1c(NCc2ccc(Oc3ccc(C(F)(F)F)cn3)cc2F)nc2ccc(NC3COC3)cc21 [Compound 546] | < 10 | < 10 | < 1 |  | 
Cn1c(NCc2ccc(Oc3ccc(Cl)cn3)cc2)nc2c(F)cc(NC3COC3)cc21 [Compound 553] | < 10 | < 10 | < 1 |  | 
Cn1c(NCc2ccc(Oc3ccc(OC(F)(F)F)cn3)cc2)nc2ccc(NC3COC3)cc21 [Compound 378] | < 10 | < 10 | < 1 |  | 
CC(Nc1nc2cc(N)ccc2[nH]1)c1ccc(Oc2ccc(Cl)cc2)cc1 (stereo not drawn) [Compound 110] | < 10 | < 10 | < 1 |  | 
Cn1c(NCCOc2ccc(OC(F)(F)F)c(Cl)c2)nc2cc(N)ccc21 [Compound 59] | < 10 | > 20 | < 1 |  | 
CC(Nc1ccc2[nH]c(N(C)C)nc2c1)c1ccc(Oc2ccc(OC(F)(F)F)cc2)cc1 (stereo not drawn) [Compound 127] | < 10 | > 20 | < 1 |  | 
OCCNc1nc2ccc(NC3COC3)cc2n1Cc1ccc(Oc2ccc(Cl)cc2)cc1 [Compound 204] | < 10 | < 10 | < 1 |  | 
Nc1ccc2nc(NCc3ccc(C(=O)c4ccc(Cl)cc4)cc3)[nH]c2c1 [Compound 130] | < 10 | < 10 | < 1 |  | 
CCC(Nc1nc2ccc(Nc3cc(C(F)F)[nH]n3)cc2n1C)c1ccc(Oc2ncc(Cl)cn2)cc1 (stereo not drawn) [Compound 535] | < 10 | < 10 | < 1 |  | 
CCn1c(NCc2ccc(Oc3ncc(C(F)(F)F)cn3)cc2)nc2ccc(Nc3n[nH]c(C)c3Cl)cc21 [Compound 516] |  |  | > 10 | < 10 | < 10
Cn1c(NCc2ccc(Oc3ncc(Cl)cc3F)cc2)nc2ccc(NC3COC3)cc21 [Compound 324] | < 10 | < 10 | < 1 |  | 
Cn1c(NCc2ccc(Oc3ncc(Cl)cn3)cc2)nc2ccc(N)cc21 [Compound 288] | < 10 | < 10 | < 1 |  | 
CCn1c(NCc2ccc(Oc3cnc(Cl)cn3)cc2)nc2ccc(Nc3cc(C(C)(C)C)[nH]n3)cc21 [Compound 514] | < 10 | < 10 | < 1 |  | 
Cn1c(NCc2ccc(Oc3ccc(C#N)cn3)cc2)nc2ccc(N)cc21 [Compound 350] | < 10 | < 10 | < 1 |  | 
